The supplement of paper PMC6045584
± gives the standard deviation of the averaged measurements.

How the values were obtained:
EVEROLIMUS = compound: CO[C@H]1C[C@@H]2CC[C@@H](C)[C@@](O)(O2)C(=O)C(=O)N2CCCC[C@H]2C(=O)O[C@H]([C@H](C)C[C@@H]2CC[C@@H](OCCO)[C@H](OC)C2)CC(=O)[C@H](C)/C=C(\C)[C@@H](O)[C@@H](OC)C(=O)[C@H](C)C[C@H](C)/C=C/C=C/C=C/1C [EVEROLIMUS]; assay: surviving fraction relative to DMSO-only wells; higher = less growth inhibition; conditions: exposure time: 5 days
Summary of the method: (§1)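 Lines were retained only if, across three screens, replicate Pearson r was >0.7 and median Z' was >0.3. Viability was measured as CellTiter-Glo luminescence and reported as surviving fraction relative to the median of DMSO-only wells. Readings followed 10 minutes at room temperature, after log-phase tumour cells seeded at 250–500 per well in 384-well plates had been exposed, from 24 hours after seeding, continuously for five days to inhibitors at 0.5, 1, 5, 10, 50, 100, 500 and 1000 nM.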

ERLOTINIB = compound: C#Cc1cccc(Nc2ncnc3cc(OCCOC)c(OCCOC)cc23)c1 [ERLOTINIB]; assay: as above; conditions: exposure time: 5 days
Summary of the method: as §1

ETOPOSIDE = compound: COc1cc([C@@H]2c3cc4c(cc3[C@@H](O[C@@H]3O[C@@H]5CO[C@@H](C)O[C@H]5[C@H](O)[C@H]3O)[C@H]3COC(=O)[C@H]23)OCO4)cc(OC)c1O [ETOPOSIDE]; assay: area under dose-response curve of surviving fraction (unscaled, Aref=0) (surviving fraction x log10(nM)); higher = more resistant; conditions: exposure time: 5 days; dose range 0.5-1000 nM
Summary of the method: (§2)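 Three screens per tumour cell line were run in 384-well plates at eight inhibitor concentrations from 0.5 to 1000 nM over five days. Surviving fractions, from CellTiter-Glo luminescence normalised to DMSO-only wells, were fitted with 3-parameter logistic curves in the drc R package. The reported area under the curve is the unscaled activity area. It spans log10 dose, and Aref is 0.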

VINORELBINE = compound: CCC1=C[C@@H]2CN(C1)Cc1c([nH]c3ccccc13)[C@@](C(=O)OC)(c1cc3c(cc1OC)N(C)[C@H]1[C@@](O)(C(=O)OC)[C@H](OC(C)=O)[C@]4(CC)C=CCN5CC[C@]31[C@@H]54)C2 [VINORELBINE]; assay: as above; conditions: exposure time: 5 days; dose range 0.5-1000 nM
Summary of the method: as §2

GEMCITABINE = compound: Nc1ccn([C@@H]2O[C@H](CO)[C@@H](O)C2(F)F)c(=O)n1 [GEMCITABINE]; assay: as above; conditions: exposure time: 5 days; dose range 0.5-1000 nM
Summary of the method: as §2

[1] = compound: Cc1nc(Nc2n[nH]c3c2CN(C(=O)N[C@H](CN(C)C)c2ccccc2)C3(C)C)c2sccc2n1; assay: as above; conditions: exposure time: 5 days; dose range 0.5-1000 nM
Summary of the method: as §2

Row | Test System | surviving fraction (EVEROLIMUS; 0.5 nM) | surviving fraction (EVEROLIMUS; 1 nM) | surviving fraction (EVEROLIMUS; 5 nM) | surviving fraction (EVEROLIMUS; 10 nM) | surviving fraction (EVEROLIMUS; 50 nM) | surviving fraction (EVEROLIMUS; 100 nM) | surviving fraction (EVEROLIMUS; 500 nM) | surviving fraction (EVEROLIMUS; 1000 nM) | surviving fraction (ERLOTINIB; 0.5 nM) | surviving fraction (ERLOTINIB; 1 nM) | surviving fraction (ERLOTINIB; 5 nM) | surviving fraction (ERLOTINIB; 10 nM) | surviving fraction (ERLOTINIB; 50 nM) | surviving fraction (ERLOTINIB; 100 nM) | surviving fraction (ERLOTINIB; 500 nM) | surviving fraction (ERLOTINIB; 1000 nM) | area under dose-response curve (ETOPOSIDE) | area under dose-response curve (VINORELBINE) | area under dose-response curve (GEMCITABINE) | area under dose-response curve [1]
1 | SG43 HEADNECK | 1.18 ± 0.069 | 0.963 ± 0.053 | 0.943 ± 0.035 | 0.833 ± 0.13 | 0.874 ± 0.073 | 0.872 ± 0.13 | 0.908 ± 0.13 | 0.882 ± 0.071 | 1.06 ± 0.2 | 0.978 ± 0.049 | 0.882 ± 0.18 | 0.734 ± 0.17 | 0.689 ± 0.13 | 0.458 ± 0.16 | 0.265 ± 0.032 | 0.335 ± 0.097 | 2.8 | 1.93 | 2.1 | 
2 | SIHA CERVIX | 0.822 ± 0.043 | 0.741 ± 0.04 | 0.64 ± 0.02 | 0.973 ± 0.61 | 0.605 ± 0.061 | 0.592 ± 0.049 | 0.498 ± 0.044 | 0.499 ± 0.008 | 1.1 ± 0.05 | 1.075 ± 0.0096 | 1.12 ± 0.074 |  | 1.1 ± 0.067 | 1.08 ± 0.099 |  | 1.06 ± 0.038 |  | 2.25 | 2.4 | 1.55
3 | SUM44 BREAST | 0.853 ± 0.24 | 0.723 ± 0.16 | 0.718 ± 0.12 | 0.713 ± 0.12 | 0.819 ± 0.25 | 0.804 ± 0.16 | 0.723 ± 0.17 | 0.711 ± 0.11 | 1.31 ± 0.45 | 1.19 ± 0.29 | 1.28 ± 0.4 | 1.21 ± 0.26 | 1.34 ± 0.49 | 1.32 ± 0.36 | 1.39 ± 0.53 | 1.29 ± 0.38 | 3.47 | 1.61 |  | 3.07
4 | SUM149.B1*.S BREAST | 1.11 ± 0.032 | 1.06 ± 0.034 | 1.04 ± 0.039 | 0.754 ± 0.082 | 0.696 ± 0.16 | 0.681 ± 0.17 | 0.698 ± 0.13 | 0.653 ± 0.13 | 1.11 ± 0.071 | 1.12 ± 0.021 | 1.09 ± 0.065 | 1.09 ± 0.017 | 1.15 ± 0.048 | 1.08 ± 0.013 | 1.07 ± 0.069 | 1.08 ± 0.079 |  | 2.37 | 1.44 | 1.97
5 | VCAP PROSTATE | 1.04 ± 0.079 | 1.04 ± 0.052 | 0.941 ± 0.1 | 0.984 ± 0.032 | 0.891 ± 0.15 | 0.898 ± 0.027 | 0.758 ± 0.078 | 0.766 ± 0.056 | 1 ± 0.042 | 0.988 ± 0.16 | 1.17 ± 0.089 | 1.15 ± 0.057 | 1.13 ± 0.093 | 1.08 ± 0.084 | 1.11 ± 0.05 | 1.09 ± 0.093 |  | 1.32 | 1.1 | 1.29
6 | YAMATO SYNOVIAL | 1.07 ± 0.084 | 1.06 ± 0.074 | 1.06 ± 0.02 | 0.633 ± 0.022 | 0.5 ± 0.021 | 0.454 ± 0.0076 | 0.401 ± 0.014 | 0.473 ± 0.03 | 1.28 ± 0.12 | 1.29 ± 0.088 | 1.43 ± 0.079 | 1.26 ± 0.036 | 1.39 ± 0.071 | 1.35 ± 0.014 | 1.31 ± 0.074 | 1.2 ± 0.15 |  | 2.04 | 1.25 | 2.79
7 | ZR751 BREAST | 0.964 ± 0.017 | 0.715 ± 0.031 | 0.502 ± 0.054 | 0.5 ± 0.068 | 0.337 ± 0.014 | 0.353 ± 0.015 | 0.322 ± 0.038 | 0.339 ± 0.0066 | 1.01 ± 0.04 | 1.29 ± 0.17 | 1.14 ± 0.14 | 1.05 ± 0.087 | 0.926 ± 0.14 | 0.881 ± 0.14 | 0.71 ± 0.18 | 0.766 ± 0.045 |  | 1.87 | 2.02 | 1.83
